Source: ChEMBL document CHEMBL4364276, “Discovery of 4-phenyl-2H-benzo[b][1,4]oxazin-3(4H)-one derivatives as potent and orally active PI3K/mTOR dual inhibitors” (Eur J Med Chem, 2019)

Assays:
[1] = molecular target: Eukaryotic translation initiation factor 2-alpha kinase 3 (Homo sapiens) (UniProt Q9NZJ5); test: Inhibition of human EIF2AK3 at 100 nM using MBP as substrate by [gamma-33P]-ATP assay
[2] = molecular target: Serine/threonine-protein kinase 25 (Homo sapiens) (UniProt O00506); test: Inhibition of human STK25 at 100 nM using MBP as substrate by [gamma-33P]-ATP assay
HeLa = test: Inhibition of colony formation in human HeLa cells incubated for 2 weeks crystal violet staining based assay; format: functional, cell-based
[3] = molecular target: Dual specificity mitogen-activated protein kinase kinase 3 (Homo sapiens) (UniProt P46734); test: Inhibition of human MEK3 at 100 nM using p38alpha as substrate by [gamma-33P]-ATP assay
[4] = molecular target: Aurora kinase B (Homo sapiens) (UniProt Q96GD4); test: Inhibition of human Aurora B at 100 nM using [H-LRRASLG] as substrate by [gamma-33P]-ATP assay
[5] = Oral bioavailability in Sprague-Dawley rat at 10 mg/kg measured upto 24 hrs by LC-MS/MS analysis; format: ADME, organism-based; details: in vivo
[6] = molecular target: Serine/threonine-protein kinase ULK3 (Homo sapiens) (UniProt Q6PHR2); test: Inhibition of human ULK3 at 100 nM using MBP as substrate by [gamma-33P]-ATP assay
[7] = molecular target: Mitogen-activated protein kinase kinase kinase kinase 5 (Homo sapiens) (UniProt Q9Y4K4); test: Inhibition of human KHS at 100 nM using MBP as substrate by [gamma-33P]-ATP assay
[8] = molecular target: Serine/threonine-protein kinase/endoribonuclease IRE2 (Homo sapiens) (UniProt Q76MJ5); test: Inhibition of human ERN2 at 100 nM using MBP as substrate by [gamma-33P]-ATP assay
[9] = molecular target: RAF proto-oncogene serine/threonine-protein kinase (Homo sapiens) (UniProt P04049); test: Inhibition of human RAF1 at 100 nM using MEK1 as substrate by [gamma-33P]-ATP assay
[10] = molecular target: Serine/threonine-protein kinase N2 (Homo sapiens) (UniProt Q16513); test: Inhibition of human PKN2 at 100 nM using KKLNRTLSVA as substrate by [gamma-33P]-ATP assay
[11] = molecular target: Protein kinase C delta type (Homo sapiens) (UniProt Q05655); test: Inhibition of human PKCdelta at 100 nM using ERMRPRKRQGSVRRRV as substrate by [gamma-33P]-ATP assay
[12] = molecular target: Tyrosine-protein kinase ZAP-70 (Homo sapiens) (UniProt P43403); test: Inhibition of human ZAP70 at 100 nM using poly[Glu:Tyr] (4:1) as substrate by [gamma-33P]-ATP assay
[13] = molecular target: PAS domain-containing serine/threonine-protein kinase (Homo sapiens) (UniProt Q96RG2); test: Inhibition of human PASK at 100 nM using KKLNRTLSFAEPG as substrate by [gamma-33P]-ATP assay
[14] = Volume of distribution at steady state in Sprague-Dawley rat at 1 mg/kg, iv measured upto 24 hrs by LC-MS/MS analysis; format: ADME, organism-based; details: in vivo, read-out: Vdss
[15] = molecular target: Casein kinase I isoform gamma-3 (Homo sapiens) (UniProt Q9Y6M4); test: Inhibition of human CK1gamma3 at 100 nM using KRRRAL[pS]VASLPGL as substrate by [gamma-33P]-ATP assay
[16] = molecular target: Glycogen synthase kinase-3 alpha (Homo sapiens) (UniProt P49840); test: Inhibition of human GSK3A at 100 nM using YRRAAVPPSPSLSRHSSPHQ(pS)EDEEE as substrate by [gamma-33P]-ATP assay
[17] = molecular target: CDK7/Cyclin H/MNAT1 (Homo sapiens) (UniProt P51946+P50613+P51948); test: Inhibition of human CDK7/cyclin-H/MNAT1 at 100 nM using MBP as substrate by [gamma-33P]-ATP assay; format: protein-complex assay
[18] = Half life in Sprague-Dawley rat at 10 mg/kg, po measured upto 24 hrs by LC-MS/MS analysis; format: ADME, organism-based; details: in vivo
[19] = molecular target: STE20-like serine/threonine-protein kinase (Homo sapiens) (UniProt Q9H2G2); test: Inhibition of human SLK at 100 nM using Histone H3 as substrate by [gamma-33P]-ATP assay
[20] = molecular target: Serine/threonine-protein kinase PLK2 (Homo sapiens) (UniProt Q9NYY3); test: Inhibition of human PLK2 at 100 nM using casein as substrate by [gamma-33P]-ATP assay
[21] = molecular target: Insulin receptor (Homo sapiens) (UniProt P06213); test: Inhibition of human IR at 100 nM using poly[Glu:Tyr] (4:1) as substrate by [gamma-33P]-ATP assay
[22] = molecular target: Serine/threonine-protein kinase PLK4 (Homo sapiens) (UniProt O00444); test: Inhibition of human PLK4 at 100 nM using casein as substrate by [gamma-33P]-ATP assay
[23] = molecular target: Fibroblast growth factor receptor 4 (Homo sapiens) (UniProt P22455); test: Inhibition of human FGFR4 at 100 nM using poly[Glu:Tyr] (4:1) as substrate by [gamma-33P]-ATP assay
Homo sapiens = organism: Homo sapiens; test: Inhibition of human AMPK (A1/B2/G1) at 100 nM using HMRSAMSGLHLVKRR as substrate by [gamma-33P]-ATP assay
[24] = molecular target: Dual specificity mitogen-activated protein kinase kinase 6 (Homo sapiens) (UniProt P52564); test: Inhibition of human MKK6 at 100 nM using p38alpha as substrate by [gamma-33P]-ATP assay
[25] = molecular target: Serine/threonine-protein kinase TAO3 (Homo sapiens) (UniProt Q9H2K8); test: Inhibition of human TAOK3 at 100 nM using MBP as substrate by [gamma-33P]-ATP assay
[26] = molecular target: Serine/threonine-protein kinase Nek1 (Homo sapiens) (UniProt Q96PY6); test: Inhibition of human NEK1 at 100 nM using MBP as substrate by [gamma-33P]-ATP assay
[27] = molecular target: Dual specificity mitogen-activated protein kinase kinase 4 (Homo sapiens) (UniProt P45985); test: Inhibition of human MKK4 at 100 nM using JNK1 as substrate by [gamma-33P]-ATP assay
[28] = molecular target: Focal adhesion kinase 1 (Homo sapiens) (UniProt Q05397); test: Inhibition of human FAK at 100 nM using poly[Glu:Tyr] (4:1) as substrate by [gamma-33P]-ATP assay
[29] = molecular target: Serine/threonine-protein kinase mTOR (Homo sapiens, UniProt P42345); test: Inhibition of human mTOR at 100 nM using 4EBP1 as substrate by [gamma-33P]-ATP assay
[30] = molecular target: Mitogen-activated protein kinase kinase kinase 7 (Homo sapiens) (UniProt O43318); test: Inhibition of human TAK1 at 100 nM using casein as substrate by [gamma-33P]-ATP assay
[31] = molecular target: G protein-coupled receptor kinase 4 (Homo sapiens) (UniProt P32298); test: Inhibition of human GRK4 at 100 nM using casein as substrate by [gamma-33P]-ATP assay
Chain of G protein-coupled receptor kinase 4 (Homo sapiens) (P32298 whole entry, looked up): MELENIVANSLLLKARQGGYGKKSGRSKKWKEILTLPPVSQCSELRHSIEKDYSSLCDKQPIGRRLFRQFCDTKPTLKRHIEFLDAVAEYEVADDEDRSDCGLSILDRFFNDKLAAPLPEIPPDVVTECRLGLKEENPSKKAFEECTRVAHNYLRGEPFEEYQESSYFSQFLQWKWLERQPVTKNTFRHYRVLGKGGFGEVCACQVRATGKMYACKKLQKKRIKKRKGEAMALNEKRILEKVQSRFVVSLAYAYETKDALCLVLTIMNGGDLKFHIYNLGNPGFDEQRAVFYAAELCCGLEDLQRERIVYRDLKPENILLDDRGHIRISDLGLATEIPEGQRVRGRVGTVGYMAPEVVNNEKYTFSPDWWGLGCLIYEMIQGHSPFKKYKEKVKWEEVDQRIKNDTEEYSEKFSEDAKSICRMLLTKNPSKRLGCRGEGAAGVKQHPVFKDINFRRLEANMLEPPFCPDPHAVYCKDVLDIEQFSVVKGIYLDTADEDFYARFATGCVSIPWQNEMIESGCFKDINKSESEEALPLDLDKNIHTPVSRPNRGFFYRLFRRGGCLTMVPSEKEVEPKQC

Chain of Protein kinase C delta type (Homo sapiens) (Q05655 whole entry, looked up): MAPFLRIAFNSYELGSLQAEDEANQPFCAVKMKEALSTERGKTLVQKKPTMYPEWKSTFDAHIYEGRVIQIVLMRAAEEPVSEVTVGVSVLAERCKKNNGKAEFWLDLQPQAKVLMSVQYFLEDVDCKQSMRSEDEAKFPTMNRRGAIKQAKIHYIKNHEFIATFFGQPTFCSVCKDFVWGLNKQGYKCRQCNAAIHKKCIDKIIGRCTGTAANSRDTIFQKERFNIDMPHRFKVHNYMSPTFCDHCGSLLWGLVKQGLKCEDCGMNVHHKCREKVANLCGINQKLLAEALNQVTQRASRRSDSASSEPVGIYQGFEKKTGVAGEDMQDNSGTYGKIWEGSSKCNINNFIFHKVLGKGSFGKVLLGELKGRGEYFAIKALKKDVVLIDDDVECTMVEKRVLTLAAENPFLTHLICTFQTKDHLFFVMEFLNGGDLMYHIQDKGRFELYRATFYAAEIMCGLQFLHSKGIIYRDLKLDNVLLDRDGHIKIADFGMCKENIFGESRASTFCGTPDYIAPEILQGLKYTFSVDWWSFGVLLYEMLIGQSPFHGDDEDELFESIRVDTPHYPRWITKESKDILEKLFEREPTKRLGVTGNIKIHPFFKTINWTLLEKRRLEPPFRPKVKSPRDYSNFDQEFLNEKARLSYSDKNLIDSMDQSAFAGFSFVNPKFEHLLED
Chain of Serine/threonine-protein kinase PLK4 (Homo sapiens) (O00444 whole entry): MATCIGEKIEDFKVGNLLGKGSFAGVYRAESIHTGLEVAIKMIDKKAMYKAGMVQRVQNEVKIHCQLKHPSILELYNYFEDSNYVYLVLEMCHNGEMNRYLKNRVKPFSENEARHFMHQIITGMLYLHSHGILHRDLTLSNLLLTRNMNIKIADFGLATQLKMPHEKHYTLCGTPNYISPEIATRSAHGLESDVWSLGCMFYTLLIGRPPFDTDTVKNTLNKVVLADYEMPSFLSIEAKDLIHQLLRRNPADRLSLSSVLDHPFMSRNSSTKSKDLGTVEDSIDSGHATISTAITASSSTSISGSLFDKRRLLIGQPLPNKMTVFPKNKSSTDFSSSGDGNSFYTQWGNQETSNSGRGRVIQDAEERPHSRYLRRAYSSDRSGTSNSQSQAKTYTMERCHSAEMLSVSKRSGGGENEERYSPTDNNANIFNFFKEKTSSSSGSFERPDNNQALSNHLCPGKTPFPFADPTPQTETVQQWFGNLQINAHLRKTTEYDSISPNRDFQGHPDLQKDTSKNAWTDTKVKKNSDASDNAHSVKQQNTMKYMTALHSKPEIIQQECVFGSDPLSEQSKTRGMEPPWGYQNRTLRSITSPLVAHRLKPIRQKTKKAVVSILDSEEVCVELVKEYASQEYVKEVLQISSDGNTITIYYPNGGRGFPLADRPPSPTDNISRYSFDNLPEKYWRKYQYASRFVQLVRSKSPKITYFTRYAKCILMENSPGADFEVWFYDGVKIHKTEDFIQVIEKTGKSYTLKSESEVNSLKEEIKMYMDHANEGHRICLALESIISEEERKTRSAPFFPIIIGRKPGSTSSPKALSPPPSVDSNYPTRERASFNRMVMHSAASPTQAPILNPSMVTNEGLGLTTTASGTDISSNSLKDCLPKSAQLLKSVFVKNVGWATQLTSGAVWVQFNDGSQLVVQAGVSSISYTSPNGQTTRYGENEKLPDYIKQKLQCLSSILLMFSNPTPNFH
Chain of Serine/threonine-protein kinase ULK3 (Homo sapiens) (Q6PHR2 whole entry): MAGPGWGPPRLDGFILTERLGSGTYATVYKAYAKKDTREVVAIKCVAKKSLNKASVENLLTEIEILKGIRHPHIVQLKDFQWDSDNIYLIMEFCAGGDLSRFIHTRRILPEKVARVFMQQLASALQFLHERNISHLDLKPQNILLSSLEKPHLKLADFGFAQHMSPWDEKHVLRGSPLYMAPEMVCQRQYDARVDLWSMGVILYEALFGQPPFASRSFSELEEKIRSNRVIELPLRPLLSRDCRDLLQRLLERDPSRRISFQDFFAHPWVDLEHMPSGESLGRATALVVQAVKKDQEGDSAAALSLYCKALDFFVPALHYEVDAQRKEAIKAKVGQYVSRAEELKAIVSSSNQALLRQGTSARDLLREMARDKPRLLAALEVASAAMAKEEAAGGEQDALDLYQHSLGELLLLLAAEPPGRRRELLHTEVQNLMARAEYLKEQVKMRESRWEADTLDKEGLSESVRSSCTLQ
Chain of Serine/threonine-protein kinase PLK2 (Homo sapiens) (Q9NYY3 whole entry, looked up): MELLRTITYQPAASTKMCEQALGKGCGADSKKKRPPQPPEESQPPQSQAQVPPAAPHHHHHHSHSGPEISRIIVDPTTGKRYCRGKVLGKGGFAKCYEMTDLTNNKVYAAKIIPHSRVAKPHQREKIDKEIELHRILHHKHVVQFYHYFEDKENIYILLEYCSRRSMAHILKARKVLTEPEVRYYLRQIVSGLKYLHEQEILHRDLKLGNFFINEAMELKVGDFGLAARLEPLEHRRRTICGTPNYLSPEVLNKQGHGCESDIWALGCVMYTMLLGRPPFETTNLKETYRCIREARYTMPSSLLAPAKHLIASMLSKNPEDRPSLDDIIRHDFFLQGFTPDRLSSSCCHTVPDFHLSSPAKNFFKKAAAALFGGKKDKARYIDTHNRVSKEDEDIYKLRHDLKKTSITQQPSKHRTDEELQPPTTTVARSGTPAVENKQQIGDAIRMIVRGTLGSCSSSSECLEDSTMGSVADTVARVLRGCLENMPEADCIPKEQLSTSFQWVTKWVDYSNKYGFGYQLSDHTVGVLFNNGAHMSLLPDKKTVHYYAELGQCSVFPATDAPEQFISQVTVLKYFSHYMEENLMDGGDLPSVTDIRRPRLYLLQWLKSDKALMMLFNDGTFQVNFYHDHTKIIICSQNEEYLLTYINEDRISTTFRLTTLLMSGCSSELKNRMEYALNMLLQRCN
Chain of Dual specificity mitogen-activated protein kinase kinase 6 (Homo sapiens) (P52564 whole entry): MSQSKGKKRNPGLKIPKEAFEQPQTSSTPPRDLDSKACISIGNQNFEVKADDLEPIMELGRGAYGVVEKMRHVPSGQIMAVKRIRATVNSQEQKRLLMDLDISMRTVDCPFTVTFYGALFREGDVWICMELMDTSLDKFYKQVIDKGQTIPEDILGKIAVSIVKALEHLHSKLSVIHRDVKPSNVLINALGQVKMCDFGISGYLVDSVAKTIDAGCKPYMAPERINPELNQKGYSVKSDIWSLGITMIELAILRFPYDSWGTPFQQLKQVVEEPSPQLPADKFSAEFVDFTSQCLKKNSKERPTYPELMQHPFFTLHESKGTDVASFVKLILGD
Chain of STE20-like serine/threonine-protein kinase (Homo sapiens) (Q9H2G2 whole entry, looked up): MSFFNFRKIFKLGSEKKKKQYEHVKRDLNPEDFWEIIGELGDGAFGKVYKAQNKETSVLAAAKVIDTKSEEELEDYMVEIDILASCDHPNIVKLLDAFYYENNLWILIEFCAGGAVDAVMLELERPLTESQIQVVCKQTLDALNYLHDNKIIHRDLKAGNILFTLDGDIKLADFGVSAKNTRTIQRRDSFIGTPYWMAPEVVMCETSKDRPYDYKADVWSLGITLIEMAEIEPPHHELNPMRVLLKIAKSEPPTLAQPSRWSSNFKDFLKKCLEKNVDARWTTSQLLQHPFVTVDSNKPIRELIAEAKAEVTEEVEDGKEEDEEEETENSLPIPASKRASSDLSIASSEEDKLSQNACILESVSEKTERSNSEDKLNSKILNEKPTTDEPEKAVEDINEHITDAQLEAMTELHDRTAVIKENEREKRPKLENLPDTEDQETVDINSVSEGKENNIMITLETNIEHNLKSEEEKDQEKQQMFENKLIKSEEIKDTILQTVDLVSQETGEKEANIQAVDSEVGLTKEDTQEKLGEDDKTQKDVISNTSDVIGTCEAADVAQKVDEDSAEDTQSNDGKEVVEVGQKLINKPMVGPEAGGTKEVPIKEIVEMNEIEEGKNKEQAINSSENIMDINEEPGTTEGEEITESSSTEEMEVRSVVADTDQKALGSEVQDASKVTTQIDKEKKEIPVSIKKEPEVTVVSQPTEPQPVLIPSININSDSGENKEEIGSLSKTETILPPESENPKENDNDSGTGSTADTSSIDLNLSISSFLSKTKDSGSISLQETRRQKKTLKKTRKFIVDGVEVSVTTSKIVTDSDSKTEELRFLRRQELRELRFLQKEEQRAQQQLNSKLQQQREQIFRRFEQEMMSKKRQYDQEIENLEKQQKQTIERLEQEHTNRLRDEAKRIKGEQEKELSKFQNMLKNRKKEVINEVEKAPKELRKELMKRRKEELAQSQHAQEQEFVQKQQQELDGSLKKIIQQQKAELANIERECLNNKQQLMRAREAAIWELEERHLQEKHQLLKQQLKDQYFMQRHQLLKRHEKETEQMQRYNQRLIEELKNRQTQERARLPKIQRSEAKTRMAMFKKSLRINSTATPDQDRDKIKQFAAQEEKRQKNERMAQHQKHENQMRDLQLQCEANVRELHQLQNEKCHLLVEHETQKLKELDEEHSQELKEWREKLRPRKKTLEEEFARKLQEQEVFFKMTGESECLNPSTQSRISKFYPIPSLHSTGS

Question: With COc1ccc(N2C(=O)COc3ccc(-c4cnc(OC)c(NS(=O)(=O)c5ccc(F)cc5)c4)cc32)cc1 as the compound, how does the inhibition [1] read?
Answer: The inhibition was 23.3%.

Question: What about the inhibition [2] of the same compound?
Answer: The inhibition was 0.52%.

Question: And the inhibition (HeLa)?
Answer: Its inhibition is “Dose-dependent effect”.

Question: And the inhibition [3]?
Answer: The inhibition was 1.4%.

Question: What about the inhibition [4] of the same compound?
Answer: The inhibition was -2.21%.

Question: What about the bioavailability [5] of the same compound?
Answer: Its bioavailability is 24.1%.

Question: And the inhibition [6]?
Answer: The inhibition was 5.64%.

Question: What about the inhibition [7] of the same compound?
Answer: Its inhibition is -9.84%.

Question: And the inhibition [8]?
Answer: Its inhibition is -2.98%.

Question: And the inhibition [9]?
Answer: The inhibition was -0.03%.

Question: What about the inhibition [10] of the same compound?
Answer: The inhibition was 6.6%.

Question: And the inhibition [11]?
Answer: Its inhibition is 2.24%.

Question: And the inhibition [12]?
Answer: The inhibition was -9.69%.

Question: What about the inhibition [13] of the same compound?
Answer: Its inhibition is -2.91%.

Question: What about the Vd [14] of the same compound?
Answer: The Vd was 1.2 L/kg.

Question: And the inhibition [15]?
Answer: Its inhibition is -3.55%.

Question: What about the inhibition [16] of the same compound?
Answer: Its inhibition is -8.76%.

Question: And the inhibition [17]?
Answer: Its inhibition is -3.2%.

Question: What about the half-life [18] of the same compound?
Answer: The half-life was 1.78 h.

Question: What about the inhibition [19] of the same compound?
Answer: The inhibition was -0.32%.

Question: What about the inhibition [20] of the same compound?
Answer: The inhibition was 4.64%.

Question: What about the inhibition [21] of the same compound?
Answer: Its inhibition is 6.82%.

Question: And the inhibition [22]?
Answer: Its inhibition is -1.06%.

Question: And the inhibition [23]?
Answer: Its inhibition is 6.2%.

Question: What about the inhibition (Homo sapiens) of the same compound?
Answer: The inhibition was -4.96%.

Question: And the inhibition [24]?
Answer: The inhibition was 4.5%.

Question: And the inhibition [25]?
Answer: The inhibition was 6.13%.

Question: And the inhibition [26]?
Answer: Its inhibition is 19%.

Question: What about the inhibition [27] of the same compound?
Answer: The inhibition was -4.2%.

Question: What about the inhibition [28] of the same compound?
Answer: Its inhibition is 15.9%.

Question: What about the inhibition [29] of the same compound?
Answer: The inhibition was 67.5%.

Question: And the inhibition [30]?
Answer: The inhibition was 12.5%.

Question: And the inhibition [31]?
Answer: Its inhibition is 1.46%.
